Experiments:
[1] = tested on: Tau-BiFC cells; assay: Cytotoxicity (cell survival rate) in tau-BiFC cells; conditions: group treated with Forskolin alone = 100%
Procedure, shortened: (§1)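 Tau-BiFC cells co-treated 48 h with Forskolin ([…]) and compound at 0.03–30 μM. BiFC fluorescence quantified by imaging, IC50 by nonlinear regression; cytotoxicity as Hoechst-stained nuclei count relative to Forskolin-only wells (100% survival).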

[2] = Liver microsomal stability (mouse); type: in vitro ADME; conditions: amount of substrate remaining; 1 μM, 0.25 mg/mL microsomes, 37° C., 30 minutes
Description: (§2) The liver microsomal stability of the compounds prepared according to Examples 1 to 171 was confirmed. Specifically, four kinds of liver microsomes (human, dog, rat, and mouse, each 0.25 mg/mL), a 0.1 M phosphate buffer solution (pH 7.4), and the compounds with a concentration of 1 μM were added, respectively. Then the mixture was cultured in advance at 37° C. for 5 minutes, and then further cultured at 37° C. for 30 minutes together with the addition of an NADPH generation system solution. Thereafter, a reaction was terminated by adding an acetonitrile solution containing an internal standard material (chloropropamide), centrifugal separation (14,000 rpm, 4° C.) was performed for 5 minutes, and then a supernatant was injected into an LC-MS/MS system. The substrate drugs were analyzed to evaluate the metabolic stability for 8 kinds of compounds.
(§3) The amount of substrate remaining through the reaction was analyzed using the Shimadzu Nexera XR system and TSQ vantage (Thermo). Kinetex XB-C18 (2.1 mm×100 mm, 2.6 μm, particle size; Phenomenex, USA) was used in an HPLC column, and (A) distilled water containing 0.1% formic acid and (B) acetonitrile containing 0.1% formic acid were used as mobile phases. Analyst software (version 1.6.3) and Xcalibur (version 1.6.1) were used for data analysis.

[3] = biological target: T1, CYP2D6 (Homo sapiens, UniProt P10635); assay: Inhibition of CYP coenzyme activity in human liver microsomes; type: in vitro ADME; conditions: compound 10 PM (so in the source); human liver microsomes 0.25 mg/mL; substrate dextromethorphan; 15 minutes
T1 construct: human liver microsomes (0.25 mg/mL); from tissue; host or cells: human liver microsomes
Description: (§4) 5 The inhibition effects of CYP coenzyme activity by the compounds prepared according to Examples 1 to 171 was confirmed. Specifically, human liver microsomes (0.25 mg/mL), a 0.1 M phosphate buffer solution (pH 7.4), substrate drug cocktails (phenacetin 50 μM, diclofenac 10 μM, S-mephenytoin 100 μM, dextromethorphan 5 μM, and midazolam 2.5 μM) of five kinds of drug metabolism enzymes, and the compounds with a concentration of 0 μM or 10 PM were added, respectively. Then the mixture was cultured in advance at 37° C. for 5 minutes, and then further cultured at 37° C. for 15 minutes together with the addition of an NADPH generation system solution. Thereafter, a reaction was terminated by adding an acetonitrile solution containing an internal standard material (terfenadine), centrifugal separation (14,000 rpm, 4° C.) was performed for 5 minutes, and then a supernatant was injected into an LC-MS/MS system. Metabolites of the substrate drugs were simultaneously analyzed to evaluate the drug metabolism inhibition ability.
(§5) Metabolites of each CYP coenzyme indicator drug generated through the reaction were analyzed using the Shimadzu Nexera XR system and TSQ vantage (Thermo). Kinetex C18 (2.1 mm×100 mm, 2.6 μm, particle size; Phenomenex, USA) was used in an HPLC column, and (A) distilled water containing 0.1% formic acid and (B) acetonitrile containing 0.1% formic acid were used as mobile phases, and the gradient program shown in Table 2 was applied.
(§6) The generated metabolites were quantified using an MRM (multiple reaction monitoring) quantification mode, and Xcalibur (version 1.6.1) was used for data analysis.

[4] = biological target: T2, CYP1A2 (Homo sapiens, UniProt P05177); assay: as above; type: in vitro ADME; conditions: compound 10 PM (so in the source); human liver microsomes 0.25 mg/mL; substrate phenacetin; 15 minutes
T2 construct: human liver microsomes (0.25 mg/mL); from tissue; host or cells: human liver microsomes
T2 sequence (P05177 1-516): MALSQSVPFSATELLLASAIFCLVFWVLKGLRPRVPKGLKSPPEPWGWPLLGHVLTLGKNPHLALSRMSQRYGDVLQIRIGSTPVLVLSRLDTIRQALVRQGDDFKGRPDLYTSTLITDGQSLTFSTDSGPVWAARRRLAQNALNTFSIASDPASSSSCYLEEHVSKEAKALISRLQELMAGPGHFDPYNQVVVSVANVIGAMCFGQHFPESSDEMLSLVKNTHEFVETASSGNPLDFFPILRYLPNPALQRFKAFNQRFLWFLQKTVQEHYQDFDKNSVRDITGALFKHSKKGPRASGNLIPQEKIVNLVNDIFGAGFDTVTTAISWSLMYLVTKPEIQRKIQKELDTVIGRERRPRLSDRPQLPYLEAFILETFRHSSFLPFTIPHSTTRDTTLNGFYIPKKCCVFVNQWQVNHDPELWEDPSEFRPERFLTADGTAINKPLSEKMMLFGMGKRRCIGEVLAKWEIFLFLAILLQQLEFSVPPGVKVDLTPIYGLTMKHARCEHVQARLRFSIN
Description: as §4, §5, §6

[5] = biological target: T3, CYP2C19 (Homo sapiens, UniProt P33261); assay: as above; type: in vitro ADME; conditions: compound 10 PM (so in the source); human liver microsomes 0.25 mg/mL; substrate S-mephenytoin; 15 minutes
T3 construct: human liver microsomes (0.25 mg/mL); from tissue; host or cells: human liver microsomes
Description: as §4, §5, §6

[6] = biological target: T4, CYP2C9 (Homo sapiens, UniProt P11712); assay: as above; type: in vitro ADME; conditions: compound 10 PM (so in the source); human liver microsomes 0.25 mg/mL; substrate diclofenac; 15 minutes
T4 construct: human liver microsomes (0.25 mg/mL); from tissue; host or cells: human liver microsomes
Description: as §4, §5, §6

[7] = Liver microsomal stability (rat); type: in vitro ADME; conditions: amount of substrate remaining; 1 μM, 0.25 mg/mL microsomes, 37° C., 30 minutes
Description: as §2, §3

[8] = Liver microsomal stability (dog); type: in vitro ADME; conditions: amount of substrate remaining; 1 μM, 0.25 mg/mL microsomes, 37° C., 30 minutes
Description: as §2, §3

[9] = biological target: T5, tau protein (Homo sapiens, UniProt P10636); assay: Tau protein aggregation inhibition in tau-BiFC cell model; type: cell-based; conditions: tau-BiFC cells treated together with Forskolin, 48 hours
T5 construct: expressed in transfected cells
Procedure, shortened: as §1

[10] = Liver microsomal stability (human); type: in vitro ADME; conditions: amount of substrate remaining; 1 μM, 0.25 mg/mL microsomes, 37° C., 30 minutes
Description: as §2, §3

[11] = biological target: T6, CYP3A4 (Homo sapiens, UniProt P08684); assay: Inhibition of CYP coenzyme activity in human liver microsomes; type: in vitro ADME; parameters: scale not given here; conditions: compound 10 PM (so in the source); human liver microsomes 0.25 mg/mL; substrate midazolam; 15 minutes
T6 construct: human liver microsomes (0.25 mg/mL); from tissue; host or cells: human liver microsomes
Description: as §4, §5, §6

T4 sequence (P11712 whole entry): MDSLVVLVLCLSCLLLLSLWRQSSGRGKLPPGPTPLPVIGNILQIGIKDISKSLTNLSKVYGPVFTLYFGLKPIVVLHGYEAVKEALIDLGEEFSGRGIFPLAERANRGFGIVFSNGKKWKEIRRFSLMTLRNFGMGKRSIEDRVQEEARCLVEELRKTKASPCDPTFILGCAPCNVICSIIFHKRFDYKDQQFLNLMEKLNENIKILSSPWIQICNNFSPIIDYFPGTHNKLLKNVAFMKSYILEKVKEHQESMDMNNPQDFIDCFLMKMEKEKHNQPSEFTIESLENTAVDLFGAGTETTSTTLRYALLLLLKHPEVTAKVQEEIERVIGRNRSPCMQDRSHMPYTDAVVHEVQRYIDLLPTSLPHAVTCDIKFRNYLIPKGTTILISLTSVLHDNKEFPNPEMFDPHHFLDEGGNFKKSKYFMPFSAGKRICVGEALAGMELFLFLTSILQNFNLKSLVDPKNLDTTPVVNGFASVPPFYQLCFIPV
T1 sequence (P10635 whole entry): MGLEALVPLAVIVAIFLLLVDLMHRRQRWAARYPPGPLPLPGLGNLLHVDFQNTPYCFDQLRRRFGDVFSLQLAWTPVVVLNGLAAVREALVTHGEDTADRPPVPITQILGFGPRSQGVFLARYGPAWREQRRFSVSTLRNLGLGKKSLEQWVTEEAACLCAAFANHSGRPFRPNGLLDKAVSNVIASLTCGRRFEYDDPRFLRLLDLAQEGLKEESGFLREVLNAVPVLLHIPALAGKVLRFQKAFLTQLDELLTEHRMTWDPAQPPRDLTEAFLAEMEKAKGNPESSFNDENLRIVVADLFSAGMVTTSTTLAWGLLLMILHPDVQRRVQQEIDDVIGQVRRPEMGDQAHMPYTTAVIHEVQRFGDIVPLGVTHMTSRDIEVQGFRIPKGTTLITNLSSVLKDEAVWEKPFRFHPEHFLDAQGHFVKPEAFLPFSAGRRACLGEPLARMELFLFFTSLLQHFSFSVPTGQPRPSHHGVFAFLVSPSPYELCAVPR
T5 sequence (P10636 2-441 isoform P10636-8 limits assumed): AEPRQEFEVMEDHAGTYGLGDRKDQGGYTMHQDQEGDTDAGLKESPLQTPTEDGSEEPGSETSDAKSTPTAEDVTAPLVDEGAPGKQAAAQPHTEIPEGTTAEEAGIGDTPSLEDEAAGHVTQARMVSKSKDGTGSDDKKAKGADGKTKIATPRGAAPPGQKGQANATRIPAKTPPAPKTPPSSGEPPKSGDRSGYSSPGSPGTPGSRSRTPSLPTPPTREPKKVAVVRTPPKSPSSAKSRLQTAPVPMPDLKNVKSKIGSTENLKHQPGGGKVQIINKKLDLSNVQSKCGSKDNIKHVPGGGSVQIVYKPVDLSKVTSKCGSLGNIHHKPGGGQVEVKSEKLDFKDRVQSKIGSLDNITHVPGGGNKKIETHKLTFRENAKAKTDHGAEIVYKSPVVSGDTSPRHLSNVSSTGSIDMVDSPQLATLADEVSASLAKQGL
T3 sequence (P33261 whole entry): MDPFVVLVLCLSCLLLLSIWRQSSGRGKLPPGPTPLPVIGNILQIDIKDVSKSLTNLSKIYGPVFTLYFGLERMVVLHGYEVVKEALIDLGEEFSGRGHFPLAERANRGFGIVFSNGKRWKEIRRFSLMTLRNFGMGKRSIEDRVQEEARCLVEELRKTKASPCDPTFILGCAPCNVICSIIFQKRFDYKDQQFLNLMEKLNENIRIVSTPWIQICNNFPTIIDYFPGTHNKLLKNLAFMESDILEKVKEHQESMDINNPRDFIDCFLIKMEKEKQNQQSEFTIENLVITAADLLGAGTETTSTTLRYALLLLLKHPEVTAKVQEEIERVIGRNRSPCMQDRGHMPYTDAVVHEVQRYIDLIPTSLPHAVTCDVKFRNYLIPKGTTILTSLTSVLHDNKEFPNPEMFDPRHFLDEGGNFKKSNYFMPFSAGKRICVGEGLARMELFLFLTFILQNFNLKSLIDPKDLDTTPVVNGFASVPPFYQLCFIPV
T6 sequence (P08684 whole entry): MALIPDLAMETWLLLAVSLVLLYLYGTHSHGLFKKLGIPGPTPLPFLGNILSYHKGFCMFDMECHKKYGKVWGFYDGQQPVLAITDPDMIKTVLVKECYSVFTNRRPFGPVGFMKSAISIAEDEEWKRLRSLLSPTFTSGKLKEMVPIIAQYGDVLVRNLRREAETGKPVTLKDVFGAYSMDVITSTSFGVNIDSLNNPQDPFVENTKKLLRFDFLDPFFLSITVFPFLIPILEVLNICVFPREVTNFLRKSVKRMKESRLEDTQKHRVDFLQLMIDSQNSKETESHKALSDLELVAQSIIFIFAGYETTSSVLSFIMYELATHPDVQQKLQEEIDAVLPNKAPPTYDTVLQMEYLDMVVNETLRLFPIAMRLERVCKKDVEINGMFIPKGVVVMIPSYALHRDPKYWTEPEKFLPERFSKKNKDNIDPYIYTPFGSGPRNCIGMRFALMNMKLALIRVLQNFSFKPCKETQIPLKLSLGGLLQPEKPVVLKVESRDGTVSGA

**Q.** Which “Cell survival rate (% @ 10 μM)” value [1] does the source give for `Cn1ncc2ccc(NN=C(C#N)C#N)cc21` [Compound 63, (1-methyl-1H-indazol-6-yl)carbonohydrazonoyl dicyanide] here?
**A.** 111.4%

**Q.** And the “liver microsomal stability, Mouse (%)” value [2]?
**A.** 9.5%

**Q.** What about the “inhibition effects of CYP coenzyme activity, CYP2D6” value (“inhibition effects … CYP2D6” for short) [3] of the same molecule?
**A.** >100

**Q.** What about the “inhibition effects of CYP coenzyme activity, CYP1A2” value (“inhibition effects … CYP1A2” below) [4] of the same molecule?
**A.** 43.3

**Q.** And the “inhibition effects of CYP coenzyme activity, CYP2C19” value (shortened to “inhibition effects … CYP2C19”) [5]?
**A.** >100

**Q.** What about the “inhibition effects of CYP coenzyme activity, CYP2C9” value (from here on “inhibition effects … CYP2C9”) [6] of the same molecule?
**A.** 84.2

**Q.** What about the “liver microsomal stability, Rat (%)” value [7] of the same molecule?
**A.** 72.1%

**Q.** What about the “liver microsomal stability, Dog (%)” value [8] of the same molecule?
**A.** 82.6%

**Q.** What about the IC50 [9] of the same molecule?
**A.** 740 nM

**Q.** What about the “liver microsomal stability, Human (%)” value [10] of the same molecule?
**A.** 87.4%

**Q.** What about the “inhibition effects of CYP coenzyme activity, CYP3A4” value (“inhibition effects … CYP3A4” below) [11] of the same molecule?
**A.** >100

**Q.** Which results are given for `N#CC(C#N)=NNc1ccc2nc(NC(=O)c3cnccn3)sc2c1` [Compound 92, (2-(pyrazine-2-carboxamido)benzo[d]thiazol-6-yl)carbonohydrazonoyl dicyanide]?
**A.** Cell survival rate (% @ 10 μM) [1]: 119.5%; liver microsomal stability, Mouse (%) [2]: 51.9%; inhibition effects of CYP coenzyme activity, CYP2D6 [3]: 99.1; inhibition effects of CYP coenzyme activity, CYP1A2 [4]: 64.1; inhibition effects of CYP coenzyme activity, CYP2C19 [5]: 90.5; inhibition effects of CYP coenzyme activity, CYP2C9 [6]: 46.8; liver microsomal stability, Rat (%) [7]: 72.7%; liver microsomal stability, Dog (%) [8]: 74.7%; IC50 [9]: 240 nM; liver microsomal stability, Human (%) [10]: 74.6%; inhibition effects of CYP coenzyme activity, CYP3A4 [11]: 85.5

**Q.** Which results are given for `CN(C)c1ccc(-c2ccc(NN=C(C#N)C#N)cc2)cc1` [Compound 151, (4′-(dimethylamino)biphenyl-4-yl)carbohydrazonoyl dicyanide]?
**A.** Cell survival rate (% @ 10 μM) [1]: 69.5%; liver microsomal stability, Mouse (%) [2]: 94.6%; inhibition effects of CYP coenzyme activity, CYP2D6 [3]: 94.6; inhibition effects of CYP coenzyme activity, CYP1A2 [4]: 94.4; inhibition effects of CYP coenzyme activity, CYP2C19 [5]: 85.2; inhibition effects of CYP coenzyme activity, CYP2C9 [6]: 83.6; liver microsomal stability, Rat (%) [7]: 85.2%; liver microsomal stability, Dog (%) [8]: 83.6%; IC50 [9]: 650 nM; liver microsomal stability, Human (%) [10]: 94.4%; inhibition effects of CYP coenzyme activity, CYP3A4 [11]: 94.4

**Q.** For `Cc1ccnc(-c2ccc(NN=C(C#N)C#N)c(F)c2)n1` [Compound 37, (2-fluoro-4-(4-methylpyrimidin-2-yl)phenyl)carbonohydrazonoyl dicyanide], which “Cell survival rate (% @ 10 μM)” value [1] is on record?
**A.** 88.3%

**Q.** What about the “liver microsomal stability, Mouse (%)” value [2] of the same molecule?
**A.** 32.7%

**Q.** What about the “inhibition effects … CYP2D6” value [3] of the same molecule?
**A.** >100

**Q.** What about the “inhibition effects … CYP1A2” value [4] of the same molecule?
**A.** 78.1

**Q.** What about the “inhibition effects … CYP2C19” value [5] of the same molecule?
**A.** 100

**Q.** What about the “inhibition effects … CYP2C9” value [6] of the same molecule?
**A.** 56.9

**Q.** And the “liver microsomal stability, Rat (%)” value [7]?
**A.** 25.9%

**Q.** What about the “liver microsomal stability, Dog (%)” value [8] of the same molecule?
**A.** 61%

**Q.** And the IC50 [9]?
**A.** 1340 nM

**Q.** And the “liver microsomal stability, Human (%)” value [10]?
**A.** 55.7%

**Q.** What about the “inhibition effects … CYP3A4” value [11] of the same molecule?
**A.** >100

**Q.** Which “Cell survival rate (% @ 10 μM)” value [1] does the source give for `N#CC(C#N)=NNc1ccc(-n2cccn2)cc1` [Compound 35, (4-(1H-pyrazol-1-yl)phenyl)carbonohydrazonoyl dicyanide] here?
**A.** 100%

**Q.** What about the “liver microsomal stability, Mouse (%)” value [2] of the same molecule?
**A.** 10.7%

**Q.** And the “inhibition effects … CYP2D6” value [3]?
**A.** >100

**Q.** What about the “inhibition effects … CYP1A2” value [4] of the same molecule?
**A.** 99.9

**Q.** What about the “inhibition effects … CYP2C19” value [5] of the same molecule?
**A.** >100

**Q.** What about the “inhibition effects … CYP2C9” value [6] of the same molecule?
**A.** 81.3

**Q.** What about the “liver microsomal stability, Rat (%)” value [7] of the same molecule?
**A.** 56.4%

**Q.** What about the “liver microsomal stability, Dog (%)” value [8] of the same molecule?
**A.** 24.2%

**Q.** What about the IC50 [9] of the same molecule?
**A.** 1700 nM

**Q.** What about the “liver microsomal stability, Human (%)” value [10] of the same molecule?
**A.** 82.2%

**Q.** What about the “inhibition effects … CYP3A4” value [11] of the same molecule?
**A.** >100

**Q.** Which results are given for `N#CC(C#N)=NNc1cnc2[nH]ccc2c1` [Compound 72, (1H-pyrrolo[2,3-b]pyridin-5-yl)carbonohydrazonoyl dicyanide]?
**A.** Cell survival rate (% @ 10 μM) [1]: 89.5%; liver microsomal stability, Mouse (%) [2]: 58.6%; inhibition effects of CYP coenzyme activity, CYP2D6 [3]: 98.9; inhibition effects of CYP coenzyme activity, CYP1A2 [4]: 85.8; inhibition effects of CYP coenzyme activity, CYP2C19 [5]: 97.8; inhibition effects of CYP coenzyme activity, CYP2C9 [6]: 88.7; liver microsomal stability, Rat (%) [7]: 72.8%; liver microsomal stability, Dog (%) [8]: 84.8%; IC50 [9]: 35 nM; liver microsomal stability, Human (%) [10]: 86.3%; inhibition effects of CYP coenzyme activity, CYP3A4 [11]: >100

Source: patent publication US12590071B2, “Hydrazone derivative in which terminal amine group is substituted with aryl group or heteroaryl group, and use thereof” (KOREA INSTITUTE OF SCIENCE AND TECHNOLOGY, priority 2018, dated 2026)
